Test results as given in patent US9493420B2, “Quinoline derivatives and uses thereof” (Portland State University, priority 2005, dated 2016).
Like-named read-outs stand apart in the source and are kept apart here.

Assays:
[1] = test system: Dd2 (CQ^R) P. falciparum strain; assay: In vitro fluorescence (Sybr Green I) growth inhibition assay, Dd2 strain; type: cell-based; details: Plasmodium falciparum
Excerpt: (§1) One exemplary method for measuring inhibitory effects of RCQ compound in vitro has been reported by Smilkstein et al. (Antimicrob. Agents Chemother., 48(5):1803-1806, 2004). This method employs fluorescent detection of the level of parasitemia in cultured red blood cells and can be automated for high-throughput screening of antimalarial RCQs. This exemplary method allows the inhibitory agent (such as a RCQ) to be in contact with the parasite for an entire developmental cycle without purine starvation, which is in contrast to the traditional ^3H-hypoxanthine method (Desjardins et al., Antimicrob. Agents Chemother., 16(6):710-718, 1979). Briefly, to perform the Smilkstein et al. method, an initial parasitemia of approximately 0.2% is attained by adding uninfected red blood cells (RBCs) to a stock culture of Plasmodium sp.-infected RBCs. […] After a period of incubation (such as about 72 hours), a sufficient amount (e.g., 100 μL) of a fluorescent DNA binding dye-detergent mixture (e.g., Sybr Green I dye-detergent mixture) to lyse cells and bind to DNA is added to the reactions. Because uninfected RBCs have no DNA, only parasite DNA (in infected RBCs) is available for binding to the fluorescent dye (e.g., Sybr Green I). Samples are then incubated in the dark for a period of time (e.g., one hour), followed by measurement of levels of fluorescence. For Sybr Green I, excitation and emission wavelength are 485 and 530 nm, respectively. Fluorescence readings, which represent the amount of parasite DNA in the sample, can be plotted against the Log [drug] and fit to a curve by nonlinear regression to obtain the IC50 value for the tested compound.
(§2) An in vitro fluorescence assay for determining IC50 of antimalarial drugs was performed as previously described by Smilkstein et al. (Antimicrob. Agents Chemother., 48(5):1803-1806, 2004). This relatively low-cost procedure can be automated for high-throughput screening of the antimalarial activities of RCQs described herein. Advantageous, this method also allows the tested agent (e.g, a RCQ) to be in contact with the parasite for an entire developmental cycle without purine starvation (which occurs with the commonly used ^3H-hypoxanthine method; see, e.g., Desjardins et al., Antimicrob. Agents Chemother., 16, (6):[…], 1979).
(§3) Briefly, an initial parasitemia of approximately 0.2% was attained by addition of uninfected red blood cells to a stock culture of cells infected with Dd2 (CQ^R) or D6 (CQ^S) P. falciparum strains. A 10 mM RCQ_02 solution (in DMSO) was prepared. RCQ_02 (at a final concentration from 10^−11 to 10^−4 M) and infected red blood cells (at a final concentration of 2% (v/v)) were mixed in 100 μL samples in individual wells of a 96-well plate. Each sample was prepared in triplicate. A triplicate set of reactions containing CQ (instead of RCQ_02) was included as a control. After a 72 hour incubation period, Sybr Green I dye-detergent mixture (100 μL) was added to each reaction. The samples were further incubated for an hour in the dark, and then placed in a 96-well fluorescence plate reader (Gemini-EM, […]) and analyzed with excitation and emission wavelength bands at 485 and 530 nm, respectively. Fluorescence readings were plotted against the Log [drug], and curve fitting performed by nonlinear regression to find the IC50 value.

P. falciparum strain 3D7 = details: cited from earlier work; also: key: S = sensitive; R = resistant; S/R = intermediate level of resistance
[2] = test system: P. falciparum strain FCR3; details: cited from earlier work; also: key: S = sensitive; R = resistant; S/R = intermediate level of resistance
[3] = test system: W2 (CQ^R) P. falciparum strain; assay: In vitro fluorescence (Sybr Green I) growth inhibition assay, W2 strain; type: cell-based; details: Plasmodium falciparum
[4] = test system: D6 (CQ^S) P. falciparum strain; assay: In vitro fluorescence (Sybr Green I) growth inhibition assay, D6 strain; type: cell-based; details: Plasmodium falciparum
Excerpt: as §1, §2, §3

[5] = pH 5.7; Dorn et al., Xu et al.; cited from earlier work
[6] = test system: P. falciparum strain TM91C235; details: cited from earlier work; also: key: S = sensitive; R = resistant; S/R = intermediate level of resistance
P. falciparum strain W2 = details: cited from earlier work; also: key: S = sensitive; R = resistant; S/R = intermediate level of resistance
P. falciparum strain D6 = details: cited from earlier work; also: key: S = sensitive; R = resistant; S/R = intermediate level of resistance
P. falciparum strain Dd2 = details: cited from earlier work; also: key: S = sensitive; R = resistant; S/R = intermediate level of resistance
[7] = Heme binding by UV-VIS spectrophotometric titration (association constant); details: similar methodologies as for RCQ_02
Excerpt: Optionally, heme binding of RCQ compounds can be determined by any method known in the art, including, for example, spectrophotometric methods, like UV-VIS spectroscopy or NMR spectroscopy. Methods of measuring heme binding to a variety of molecules using the UV-VIS spectrum have been described (see, e.g., Xu et al., J. Inorg. Biochem., 86 (2-3):617-625, 2001; Xu et al., Antimicrob. Agents Chemother., 46(1):144-150, 2002). Generally, a heme-binding compound (such as a disclosed RCQ) is mixed in increasing concentration with heme (or a heme model compound, such as porphyrin or metalloporphyrin) and the absorbance spectrum is measured from the ultraviolet region well into the visible region (from about 300 nm to about 750 nm). This spectral range includes the so-called Soret and Q-band regions that arise from porphyrin or metalloporphyrin absorbance. Upon interaction between a heme-binding compound and heme (or a heme model compound, such as porphyrin or metalloporphyrin), decreased absorbance in the Soret region is observed. […]
In particular examples, the formation of heme-RCQ complexes can be determined by UV-VIS spectrophotometric titration, using a variety of commercially available spectrophotometers (such as a Varian-Cary 3E spectrophotometer). […] Optionally, pH can be monitored throughout the procedure to ensure that it remains unchanged. […]

[8] = test system: mitogen-induced murine spleen lymphocytes; type: cell-based; details: LC50; mouse spleen lymphocytes; 72 hours + 24 hours resazurin
Procedure: Mouse spleen lymphocytes were isolated from C57B1/6J mice by teasing tissues on a metallic sieve screen. […] Two hundred (200) μl isolated cells were then seeded in separate wells of a 96-well flat-bottom tissue culture plate at a density of 2×10^5 cells per well. […] After 72 hours incubation in a humidified atmosphere at 37° C. and 5% CO2, a solution of resazurin PBS was added to a final concentration 10 μM, and the plates were returned to the incubator for another 24 hours. Resazurin is a substrate which changes color in response to metabolic activity (such as, living cells). […] LC50 values were determined from plots of florescence versus drug concentration using non-linear regression by Prism software.

| Structure (SMILES) | IC50 ([1]; DD2, 72 h) [nM] | IC50 ([1]; DD2, read-out: IC50 (nM) Dd2 (CQ^R)) [nM] | Drug susceptibility, strain 3D7 (P. falciparum strain 3D7) | Drug susceptibility, strain FCR3 [2] | IC50 ([3]; W2, read-out: IC50 (nM) W2 (CQ^R)) [nM] | IC50 ([4]; D6, 72 h) [nM] | IC50 ([4]; D6, read-out: IC50 (nM) D6 (CQ^S)) [nM] | association constant reported for CQ.heme2 [5] [M⁻¹] | Drug susceptibility, strain TM91C235 [6] | Drug susceptibility, strain W2 (P. falciparum strain W2) | Drug susceptibility, strain D6 (P. falciparum strain D6) | Drug susceptibility, strain Dd2 (P. falciparum strain Dd2) | heme association constant [7] [M⁻¹] | IC50 ([1]; DD2, Table 13, growth inhibition, read-out: IC50 (nM) Dd2 (CQ^R)) [nM] | IC50 ([3]; W2, Table 13, growth inhibition, read-out: IC50 (nM) W2 (CQ^R)) [nM] | IC50 ([4]; D6, Table 13, growth inhibition, read-out: IC50 (nM) D6 (CQ^S)) [nM] | Cytotoxicity [8] [nM] |
| --- | --- | --- | --- | --- | --- | --- | --- | --- | --- | --- | --- | --- | --- | --- | --- | --- | --- |
| CCN(CC)CCCC(C)Nc1ccnc2cc(Cl)ccc12 (centres unmarked) [CQ, chloroquine] | 102 | 102 | S | R | 250 | 6.5 | 6.9 | ~400000 | R | R | S | R | – | – | – | – | – |
| Clc1ccc2c(NCCN3CCN(C(c4ccccc4)c4ccccc4)CC3)ccnc2c1 [RCQ_31] | – | – | – | – | – | – | – | – | – | – | – | – | 500000 | 3.6 | 4.3 | 1 | 1900 |
